Reference: patent US20260364030A1, “NOVEL SELECTIVE INHIBITORS OF LYSYL OXIDASES” (Syntara Limited, priority 2022, published 2026)

Legend:
[1] = test system: desmoplastic tumour; conditions: mouse, in vivo; cited from earlier work
[2] = human patients with scleroderma; cited from earlier work
[3] = biological target: T1, Human recombinant SSAO/VAP-1 (Homo sapiens, UniProt Q16853); assay: Inhibition of human recombinant SSAO/VAP-1, fluorescent Amplex Red assay; assay type: biochemical; conditions: 30 min incubation at 37 °C; benzylamine 600 μM in reaction mixture
T1 construct: a cloned cDNA template corresponding to residues 34-763 of human SSAO/VAP-1; TEV cleavage site (N); made in house; host or cells: CHO-K1 glycosylation mutant cell line, Lee 8 (vector assembled by Geneart AG)
Procedure: Human recombinant SSAO/VAP-1 amine oxidase activity was determined using the coupled colorimetric method as described for monoamine oxidase, copper-containing amine oxidases and related enzymes [Holt A. and Palcic M., 2006]. Briefly, a cloned cDNA template corresponding to residues 34-763 of human SSAO/VAP-1, and incorporating a mouse Ig kappa (κ) signal sequence, N-terminal flag epitope tag and tobacco etch virus (TEV) cleavage site, was assembled in a mammalian expression vector (pLO-CMV) by Geneart AG. This vector containing human SSAO/VAP-1 residues was transfected into CHO-K1 glycosylation mutant cell line, Lee 8. A clone stably expressing human SSAO/VAP-1 was isolated and cultured in large scale. Active human SSAO/VAP-1 was purified and recovered using immunoaffinity chromatography. This was used as the source for SSAO/VAP-1 activity. A high-throughput fluorescent assay was developed using either 96 or 384 well format. Briefly, in a standard 384 well plate assay 25 μL of purified human SSAO/VAP-1 (0.25 μg/mL) in 0.1 M sodium phophate buffer (pH 7.4) was added into each well. […] The fluorescence unit (RFU) was read every 2.5 min for 30 min at 37 °C excitation 544 nm and emission 590 (Optima; BMG labtech). The slope/min of the kinetics for each well was calculated using MARS data analysis software (BMG labtech) and this value was used to deduce the IC50 value (Dotmatics).

[4] = biological target: T2, Human MAO-A (Homo sapiens, UniProt P21397); assay: Inhibition of human recombinant MAO-A; assay type: biochemical; conditions: 2 hours incubation; substrate tyramine 200 μM
T2 construct: purchased Sigma Aldrich

[5] = biological target: T3, LOXL2 (Homo sapiens, UniProt Q9Y4K0); assay: Time-dependent inhibition of LOXL2, Amplex Red oxidation assay; assay type: biochemical; conditions: for IC50: 37 °C
T3 sequence (Q9Y4K0 26-774): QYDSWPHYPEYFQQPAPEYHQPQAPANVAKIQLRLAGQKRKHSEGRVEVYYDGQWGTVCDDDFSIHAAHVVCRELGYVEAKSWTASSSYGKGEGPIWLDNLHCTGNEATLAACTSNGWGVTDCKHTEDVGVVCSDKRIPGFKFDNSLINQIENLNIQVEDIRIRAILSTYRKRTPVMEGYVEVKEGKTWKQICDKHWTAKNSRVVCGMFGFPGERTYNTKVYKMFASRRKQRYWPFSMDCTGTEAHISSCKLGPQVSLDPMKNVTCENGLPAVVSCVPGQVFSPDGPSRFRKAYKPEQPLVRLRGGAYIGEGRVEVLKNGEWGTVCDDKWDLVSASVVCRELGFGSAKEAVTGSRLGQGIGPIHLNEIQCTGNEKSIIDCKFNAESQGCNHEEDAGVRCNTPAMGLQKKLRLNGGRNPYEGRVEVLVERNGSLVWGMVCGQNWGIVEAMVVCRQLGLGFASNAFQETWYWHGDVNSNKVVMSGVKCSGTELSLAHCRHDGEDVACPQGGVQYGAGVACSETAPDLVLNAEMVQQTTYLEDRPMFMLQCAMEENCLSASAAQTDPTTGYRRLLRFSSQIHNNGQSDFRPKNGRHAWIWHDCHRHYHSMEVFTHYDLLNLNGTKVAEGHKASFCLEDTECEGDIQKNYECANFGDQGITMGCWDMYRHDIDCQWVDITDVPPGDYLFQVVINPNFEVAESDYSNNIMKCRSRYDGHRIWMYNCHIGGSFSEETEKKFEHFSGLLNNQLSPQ
Procedure: The time dependent inhibitory effects of the Compound 1 of the present invention were tested against the given LOXL1 preparation and LOXL2 preparation using a method based on the detection of hydrogen peroxide with an Amplex Red oxidation assay [Zhou et al. 1997]. The assay was developed for use in either 384 or 96 well format. Briefly, in a standard black, clear bottom 384 well plate assay 25 µL of a dilution of any of the isoenzymes and orthologues in 1.2 M urea, 50 mM sodium borate buffer (pH 8.2) were added into each well in the presence of […] and 0.5 mM pargyline (to inhibit SSAO and MAO-B and MAO-A, respectively; not necessary if the enzyme is from a recombinant or purified form). Test compound (Compound 1) was dissolved in DMSO and tested in a Concentration Response Curve (CRC) with 11 data points, typically in the micromolar or nanomolar range after incubation with the enzyme for different time points at 37 °C. 25 μL of a reaction mixture containing twice the KM concentration of putrescine (Sigma Aldrich, e.g. 20 mM for LOXL1 or 10 mM for LOXL2), 120 µM Amplex Red (Thermo Fisher Scientific) and 1.5 U/mL horseradish peroxidase (Sigma Aldrich) prepared in 1.2 M urea, 50 mM sodium borate buffer (pH 8.2) were then added to the corresponding wells. The fluorescence (RFU) was read every 2.5 min for 30 min at 37 °C, excitation 544 nm and emission 590 nm (Optima; BMG labtech). The slope/min of the kinetics for each well was calculated using MARS data analysis software (BMG labtech) and this value was used to deduce the IC50 value (Dotmatics).

[6] = test system: skin fibrosis; assay: Mouse model of sclerosis (bleomycin-induced skin fibrosis); assay type: in vivo, male C57BL/6 mouse; conditions: topical formulation, various concentrations, from day 3; histology after 21 days; FIG. 3, ****=P≤0.0001
Procedure: Subcutaneous bleomycin (0.1 U/kg) was administered every second day (for 21 days total) to male C57BL/6 to induce skin fibrosis as a model of sclerosis. The lesions were treated, from day 3, with either Vehicle or various concentrations of Compound 1 in a topical formulation. Histology was completed after 21 days.

T1 sequence (Q16853 34-763): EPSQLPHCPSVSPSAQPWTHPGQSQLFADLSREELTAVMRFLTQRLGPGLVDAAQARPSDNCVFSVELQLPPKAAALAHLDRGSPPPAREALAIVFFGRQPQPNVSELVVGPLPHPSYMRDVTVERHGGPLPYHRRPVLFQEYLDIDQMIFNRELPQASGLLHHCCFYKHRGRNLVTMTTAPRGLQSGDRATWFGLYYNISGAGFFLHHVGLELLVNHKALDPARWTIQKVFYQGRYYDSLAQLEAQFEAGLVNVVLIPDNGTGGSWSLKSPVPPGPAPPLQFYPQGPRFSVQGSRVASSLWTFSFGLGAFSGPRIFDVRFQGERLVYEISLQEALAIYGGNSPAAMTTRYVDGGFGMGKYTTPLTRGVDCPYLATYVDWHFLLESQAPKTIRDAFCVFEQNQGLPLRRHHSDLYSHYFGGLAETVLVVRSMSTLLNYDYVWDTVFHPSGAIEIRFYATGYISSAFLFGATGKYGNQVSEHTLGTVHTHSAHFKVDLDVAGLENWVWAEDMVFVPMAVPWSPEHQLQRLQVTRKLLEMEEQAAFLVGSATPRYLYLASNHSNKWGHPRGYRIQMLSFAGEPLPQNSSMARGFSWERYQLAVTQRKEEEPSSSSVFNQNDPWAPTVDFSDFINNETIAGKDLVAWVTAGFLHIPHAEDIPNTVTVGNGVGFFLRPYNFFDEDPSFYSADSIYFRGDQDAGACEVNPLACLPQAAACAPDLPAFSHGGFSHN
T2 sequence (P21397 whole entry): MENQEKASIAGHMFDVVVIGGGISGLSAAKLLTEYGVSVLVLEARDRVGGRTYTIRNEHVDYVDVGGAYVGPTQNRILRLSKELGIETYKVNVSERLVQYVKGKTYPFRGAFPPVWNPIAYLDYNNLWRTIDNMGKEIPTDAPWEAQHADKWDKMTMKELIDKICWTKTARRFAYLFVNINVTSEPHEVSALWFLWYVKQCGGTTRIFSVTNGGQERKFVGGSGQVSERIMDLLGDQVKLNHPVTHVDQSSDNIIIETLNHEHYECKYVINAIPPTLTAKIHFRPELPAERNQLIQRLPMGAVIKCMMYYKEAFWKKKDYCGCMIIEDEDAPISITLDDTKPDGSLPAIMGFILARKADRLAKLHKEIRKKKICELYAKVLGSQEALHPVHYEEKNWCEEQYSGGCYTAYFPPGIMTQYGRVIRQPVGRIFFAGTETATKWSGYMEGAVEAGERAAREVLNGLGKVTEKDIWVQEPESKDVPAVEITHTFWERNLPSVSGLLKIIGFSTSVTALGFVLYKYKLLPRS

| SMILES | Metastatic load and survival [1] | Tolerability [2] | IC50 [3] | IC50 [4] | IC50 ([5]; 0′ incubation) | IC50 ([5]; 15′ incubation) | IC50 ([5]; 30′ incubation) | IC50 ([5]; 1 h incubation) | IC50 ([5]; 2 h incubation) | IC50 ([5]; 4 h incubation) | Time dependent LOXL2 inhibition ([5]; apparent potency increasing with time) | Average collagen score (histology) [6] |
| --- | --- | --- | --- | --- | --- | --- | --- | --- | --- | --- | --- | --- |
| N#CCCN [BAPN, β-aminopropionitrile, reference compound] | lower metastatic load and increased survival | poorly tolerated | – | – | – | – | – | – | – | – | – | – |
| NC/C(=C\F)CS(=O)(=O)c1ccccc1 [Compound 1, (E)-3-fluoro-2-((phenylsulfonyl)methyl)prop-2-en-1-amine] | – | – | > 30 µM | > 100 µM | 14.7 µM | 5.58 µM | 1.71 µM | 0.89 µM | 0.41 µM | 0.31 µM | time dependent LOXL1 and LOXL2 inhibition | significant improvement in the average collagen score |
